From US9873674B2, “C-Rel inhibitors and uses thereof” (CORNELL UNIVERSITY, priority 2012, dated 2018) come the findings set out here.

In experiment [1] the test system is L363 cells. Put plainly: Tumor cell cytotoxicity assay, multiple myeloma cell line L363. The following applies: L363 cells (active classical pathway), 48 hours. Format: cell-based. As for the experimental part: (§1) For example, the “classical” Rel pathway is crucial for the survival of L363 cell line, whereas the “alternative” pathway is important for the survival of RPMI8226 cells.
(§2) The MM and DLBCL cell lines were used to test for tumor cell cytotoxicity by the Rel inhibitor analogs. As an example, three MM cell lines were treated with a Rel inhibitor for 48 hours and cell numbers were enumerated as percentage of control group.

Experiment [2] relates to RPMI8226 cells. Put plainly: Tumor cell cytotoxicity assay, multiple myeloma cell line RPMI8226. As to conditions: RPMI8226 cells (active alternative pathway), 48 hours. Format: cell-based. The method, then: as §1, §2
Experiment [3] concerns MM1-144 cells. Briefly: Tumor cell cytotoxicity assay, multiple myeloma cell line MM1-144. The following applies: MM1-144 cells (use both pathways), 48 hours. The class given is cell-based. The method, then: as §1, §2
In experiment [4] the test system is DLBCL tumor cells. Put plainly: DLBCL xenograft tumor model in NOD/SCID mice. The class given is in vivo, mouse. As for the experimental part:
Xenograft tumor models have been widely used to study human cancer. […] The experiment used non-obese diabetic (NOD)/SCID mice for testing Rel inhibitor analogs.
Male NOD/SCID mice were injected with 3-5×10^6 of DLBCL tumor cells subcutaneously in each flank area. When tumors were palpable (˜12 days after injection), the mice were randomized to receive either vehicle or test compounds corresponding to Rel inhibitors of the invention. In some experiments, DHMEQ was used as a benchmark compound. Compounds were administrated via i.p. at 12 to 24 mg/kg, three days per week for 2-3 weeks. Tumor volume was measured twice a week.

The subject of experiment [5] is IL-2. Briefly: IL-2 expression, intracellular cytokine staining and flow cytometry in CD4+ T cells. Format: cell-based, mouse or human. As to conditions: anti-CD3+anti-CD28 for 6 hours, % cytokine-expressing CD4+ T cells; data not shown. As for the experimental part: (§3) Since autoimmune diseases are associated with elevated levels of inflammatory cytokines, it is important to identify Rel inhibitors that can inhibit the expression of inflammatory cytokines. As c-Rel regulates the expression of several cytokines including IL-2, IFN-γ, and TNF, assays for these cytokines can be used to assess the anti-inflammatory effects of Rel inhibitor analogs. To perform such experiments, mouse splenocytes or human PBMCs were stimulated with anti-CD3+anti-CD28 for 6 hours to induce cytokine expression. Compounds were added at the beginning of the culture. Cytokines (IL-2, IFN-γ, and TNF) were measured by intracellular cytokine staining and flow cytometry and the % of cytokine-expressing cells within CD4+ T cell population was enumerated. Compounds at varying doses were tested.
(In flow cytometry, cells or beads pass a laser one at a time.)

The test system of experiment [6] is TNF. Put plainly: TNF expression, intracellular cytokine staining and flow cytometry in CD4+ T cells. The class given is cell-based, mouse or human. As to conditions: anti-CD3+anti-CD28 for 6 hours, % cytokine-expressing CD4+ T cells; data not shown. As for the experimental part: as §3
Experiment [7] relates to IFN-γ. Put plainly: IFN-γ expression, intracellular cytokine staining and flow cytometry in CD4+ T cells. Format: cell-based, mouse or human. As to conditions: anti-CD3+anti-CD28 for 6 hours, % cytokine-expressing CD4+ T cells; data not shown. As for the experimental part: as §3
Experiment [8] deals with CD69. Briefly: Expression of non-c-Rel target genes. Format: cell-based, mouse or human.
Experiment [9] deals with IL-2. Put plainly: IL-2 expression by ELISA in stimulated mouse splenocytes. As to conditions: Splenocyte, mouse splenocytes stimulated with anti-CD3+anti-CD28, 0 to 20 μM, read-out: IC50 of IL2 inhibition. The class given is cell-based. As for the experimental part: In yet another example, IL-2 expression was quantified by ELISA analysis. In these experiments, mouse splenocytes were stimulated with anti-CD3+anti-CD28, in the presence of varying doses of Rel inhibitors (from 0 to 20 μM).
On the technique in general: An ELISA detects its analyte on a solid surface through an enzyme-linked reagent.

The test system of experiment [10] is STZ-induced diabetes. Put plainly: Streptozotocin (STZ)-induced diabetes model. As to conditions: 40 μg/mouse/day IP, day 0 to day 5, C57BL/6 mice; data not shown. The class given is in vivo. As for the experimental part:
In yet another example, a Rel inhibitor compound was tested in Streptozotocin (STZ)-induced diabetes model. C57BL/6 (cRel+/+) mice were treated with low dose STZ for 5 days to induce diabetes, as indicated by glucose level above 300 mg/dl. c-Rel(−/−) mice were used as a control group. The Rel inhibitor (BA-001, 40 μg/mouse/day) or DMSO were injected IP to a group of five C57BL/6 mice for six consecutive days from day 0 to day 5. Glucose levels were determined at day 5, 7, 9, 12, 15, 19 and 27.

Experiment [11] relates to DLBCL tumor cell lines. Put plainly: DLBCL cytotoxicity assay. The class given is cell-based. As to conditions: read-out: IC50 on DLBCL cytotoxicity assay. The method, then:
as §2
The IC50 was defined as the concentration that causes 50% cell death compared with control samples. […] In summary, tumor cell lines were utilized to select for Rel inhibitors with tumor cytoxicity activities. […] Those compounds with in vitro anti-tumor activity were further tested in vivo using xenograft tumor models.

Experiment [12] relates to EAE. Briefly: EAE model (multiple sclerosis) in C57BL/6 mice. Format: in vivo, mouse. As for the experimental part: As an example, C57BL/6 mice were immunized to induce EAE with 1) a subcutaneous injection on flanks of […] MOG38-50 peptide in 0.1 ml PBS emulsified in an equal volume of complete Freund's adjuvant containing […] mycobacterium tuberculosis H37RA, and 2) an intravenous injection of 100 ng pertussis toxin in 0.1 ml PBS. A second injection of pertussis toxin (100 ng per mouse) was given 48 hr later.
Mice were subsequently injected i.p. with 300 μg BA-039 (n=4) or vehicle (n=3) daily beginning with the first day of EAE onset. Mice were monitored daily for disease score up to 16 days.
In a second set of this experiment, treatment of the mice was stopped on the 16th day of the study and further monitored for additional 22 days. […] By contrast, the BA-039 treated group remained devoid of disease (average clinical score 1-2) (data not shown, manuscript in preparation). […] The data provide important information about treatment regimen with Rel inhibitors for multiple sclerosis patients in the future.

Consider `COc1ccc(C=C2C(=O)NC(=S)NC2=O)c(OC)c1` [BA-001, 5-(2,4-dimethoxybenzylidene)-2-thioxodihydro-pyrimidine-4,6(1H,5H)-dione], for which the results for the “growth inhibition (cell numbers as percentage of control group)” value in experiment [1], in experiment [2] and in [3] were “dose-dependent apoptosis”, “quite resistant” and “only partially inhibited”, respectively. For the same molecule, in [4] (24 mg/Kg i.p., three days per week, NOD/SCID mice), the “tumor growth compared to vehicle controls” value is on record as “slowed the tumor growth”. For the same molecule, the “anti-tumor potency compared with DHMEQ” value in experiment [4] (both 12 to 24 mg/kg doses, DLBCL xenograft mouse model) is listed as “much better potency than DHMEQ”. Also, the IC50 (commonly the concentration at which inhibition is half-maximal) was approximately 6 µM in [5], approximately 6 µM in [6], approximately 6 µM in experiment [7] and 15 µM in [9]. In [8], the “inhibitory effect toward non-c-Rel target genes (e.g. CD69)” value is recorded as “no inhibitory effects”. For the same molecule, the “resistance to STZ-induced diabetes (glucose level)” value in [10] is “resistant to STZ-induced diabetes”.

For `COc1ccc(C=C2C(=O)NC(=O)NC2=O)c2ccccc12` [BA-009, 5-((4-methoxynaphthalen-1-yl)methylene) pyrimidine-2,4,6(1H,3H,5H)-trione], in experiment [4] (15 mg/kg i.p., three days per week, NOD/SCID mice), the “tumor volume compared to vehicle controls” value is “significantly smaller tumor volume”.

For `COc1ccc(N2C(=O)/C(=C\c3c(OC)ccc4ccccc34)C(=O)NC2=S)cc1` [BA-030, 5-((2-methoxynaphthalen-1-yl)methylene)-1-(4-methoxyphenyl)-2-thioxodihydro-pyrimidine-4,6(1H,5H)-dione], the figures for the IC50 in experiment [11] and in experiment [9] were 4 µM and 0.4 µM, respectively.

Molecule `COc1cc(OC)c2ccccc2c1C=C1C(=O)NC(=S)NC1=O` [BA-039, 5-((2,4-dimethoxynaphthalen-1-yl)methylene)-2-thioxodihydropyrimidine-4,6(1H,5H)-dione] returned a disease score in experiment [12] (300 μg i.p. daily from first day of EAE onset, up to 16 days, reduced from 2, vehicle rises 2 to 5) of 1. For the same molecule, in [12] (22 days after treatment stopped on 16th day, control group score 5), the average clinical score is listed as 1-2.
